Laboratory results: patent US6492365B1, “Microsomal triglyceride transfer protein” (Bristol-Myers Squibb Company, priority 1992, dated 2002)
Counter-ions that a name gives are not always drawn.

Tested on: apoAI secretion from HepG2 cells
Experiment: ApoAI secretion from HepG2 cells (ELISA of culture media)
Assay type: cell-based, human
Settings: 16-hour incubation, up to the maximum dose of 20 μM
Procedure: HepG2 cells were treated with compound A at the indicated doses for 16 hours. The concentration in the cell culture media of apoB, apoAI and HSA after the incubation period was measured with the appropriate ELISA assay and normalized to total cell protein. The data shown are expressed as a percentage of the control (DMSO only).
The human hepatoblastoma cell line, HepG2, was obtained from the American Type Culture Collection (Rockville, Md.; ATCC accession no. 8065). Cultures were maintained at 37° C. in a 5% carbon dioxide atmosphere in T-75 culture flasks with 12 mL of RPMI 1640 medium containing 10% fetal bovine serum (all cell culture media and buffers were obtained from GIBCO Life Technologies, Gaithersburg, Md.). Cells were subcultured 1:4 once a week and fed fresh medium 3 times a week.
Experiments to measure the effects of compounds A and B on protein secretion were carried out in 48-well plates. HepG2 cells were subcultured 1:2 and allowed to come to confluency at least 24 hours before drug treatment. Before commencement of drug treatment, culture medium was removed, the cells washed once with PBS and 1 mL of fresh medium was added quantitatively. […] The cells were homogenized by trituration with a 1 mL micropipettor, and protein was measured using the Coomassie reagent (Pierce Chemical Co, Rockford, Ill.) as described by the manufacturer. […]

Question: Which “secretion of apoAI” value does the source give for `O=C1c2ccccc2CN1C1CCN(CCC(c2ccccc2)c2ccccc2)CC1` [compound A, 2-[1-(3,3-diphenylpropyl)-4-piperdinyl]-2,3-dihydro-3-oxo-1H-isoindole hydrochloride] here?
Answer: Its value is “unaffected”.
